Patent publication US10801071B2, “TGF(β)-MIR200-MIG6 pathway and its use in the treatment of cancer as an indicator of resistance to EGFR inhibitors” (THE JOHNS HOPKINS UNIVERSITY, priority 2014, dated 2020)

Assays:
[1] = system: AKT phosphorylation and Mig6 expression; assay: Immunoblot analysis of AKT phosphorylation and Mig6 after TGFβ blockade; type: cell-based, human; details: H1703 and JHU028 cells, TGFβ (2 ng/ml) plus SB-431542 (10 μM) for 7 days
Experimental: (§1) Two erlotinib-resistant cell lines (JHU028 and H1703) were treated with TGFβ (2 ng/ml) alone or in combination with SB-431542 (10 μM) for 7 days. A. Cell lysates were collected and subjected to immunoblot analysis with indicated antibodies. B. Levels of miR200c and miR205 were measured and relative expression is presented as ΔΔCt. C. […] Cell viability was assayed and values were set at 100% for untreated controls.
(§2) Antibodies and immunoblot analysis. Pelleted cells were lysed on ice by adding RIPA lysis buffer (Thermo Scientific, Rockford, Ill.) supplemented with protease and phosphatase inhibitors (Roche, Basel, Switzerland). Protein concentrations were determined by the BCA method and lysates diluted in SDS sample buffer (Bio-Rad, Hercules, Calif.) prior to SDS-PAGE. Anti-Mig6 antibody was a gift from Dr. Ferby (Nature medicine. 2006; 12:568-73). β-actin was obtained from Abcam (Cambridge, Mass.). All other antibodies were obtained from Cell Signaling (Beverly, Mass.). Secondary horseradish peroxidase (HRP)-conjugated antibodies were from KPL (Gaithersburg, Md.) and signals developed using West-Pico chemiluminescence substrate (Thermo Scientific). ImageJ (ver 1.46) software was used to quantify immunoblot signals on exposed films.
Autocrine or paracrine TGF3 signaling is required for the maintenance of the mesenchymal state. […]

miR200c and miR205 = assay: Quantitative real-time PCR for miR200c and miR205 after TGFβ blockade; type: cell-based, human; details: H1703 and JHU028 cells, TGFβ (2 ng/ml) plus SB-431542 (10 μM) for 7 days
Experimental: as §1
(§3) Quantitative real-time PCR for miRNA. RNA from cultured cells was extracted using the mirVana™ Kit (Ambion, Austin, Tex.). Total RNA from fresh frozen tumors was isolated using the Trizol reagent (Invitrogen, Carlsbad, Calif.). Specific quantitative real-time PCR was carried out using TaqMan MicroRNA Assays for miR200a, miR200b, miR200c, miR205 and control RNU6b (Applied Biosystems, Foster City, Calif.) on a 7900HT detector (Applied Biosystems, Foster City, Calif.).
(§4) Autocrine or paracrine TGF3 signaling is required for the maintenance of the mesenchymal state. Blockage of this signaling can inhibit or reverse EMT by upregulating miR200 and subsequently downregulating ZEB1/2 (28-31). As a corollary to this observation, over-expression of miR-200c restores the sensitivity of resistant NSCLC cells to the anti-EGFR antibody cetuximab. […]

[2] = system: JHU028 and H1703 erlotinib-resistant cell lines; assay: Cell viability assay, erlotinib sensitivity after TGFβ blockade; type: cell-based, human; details: TGFβ plus inhibitor (SB-431542 10 μM or TGFβ RII/Fc 20 ng/ml) 7 days, then 1 μM erlotinib 72 hours
Experimental: as §1
Cell viability assay. Relative cell viability was determined using an Alamar Blue assay as outlined by the manufacturer (AbDSerotec, Raleigh, N.C.). New media containing 1/10 volume of Alamar Blue reagent was added to the wells and cells were incubated at 37° C. for 1 hour. Fluorescence (545 nm excitation, 590 nm emission wavelengths) was measured using a SpectraMax Plus384 fluorometer (Sunnyvale, Calif.). Cell viability was calculated relative to an untreated culture of cells incubated in parallel.
as §4

Mig6 = assay: Immunoblot analysis of Mig6 after inhibitor exposure in parental and TGFβ-induced H358 cells; type: cell-based, human; details: 24 hours exposure
Experimental: A. Protein lysates were extracted from indicated cell lines Immunoblot analysis was performed with antibodies against E-cadherin, vimentin and β-actin. […] C. […] Cells were collected at different time points and Immunoblot analysis was performed with indicated antibodies. […] Values were set at 100% for untreated controls. […] F. Protein lysates were extracted from H358 cells treated with TGFβ1 or control vehicle for 21 days and immunoblot analysis was performed with antibodies against indicated RTKs. β-actin was used as a loading control.
as §2, with “films. […]” for “films.”

[3] = system: directly xenografted human NSCLC tumors; assay: Erlotinib response of directly xenografted primary human tumors in nude mice; type: in vivo; details: lung tumors CTG-0167, CTG-0502, CTG-0199 and CTG-0157 with low EGFR and Mig6 expression, Erlotinib 35 mg/kg
Text: Xenograft generation. […] The animals were maintained in accordance to guidelines of the American Association of Laboratory Animal Care and the research protocol was approved by the Johns Hopkins University Animal Use and Care Committee.
We obtained 18 human NSCLCs, and 27 pancreatic tumors that were directly xenografted into nude mice. No erlotinib-sensitizing mutations in EGFR were detected in any of these tumors and there was no correlation of KRAS mutation with erlotinib response. For all models tested, miR200 levels were measured by quantitative RT-PCR and mRNA levels of Mig6 and EGFR were determined by Affymetrix expression array. […] Supporting this observation, an inverse correlation between miR200c and Mig6 expression levels was noted across the pancreatic models (data not shown). […] Unlike the limited predictive ability of the Mig6/EGFR ratio in such tumors with low EGFR expression, the Mig6(mRNA)/miR200c ratio was still able to correctly identify three out of four of these lung tumors with low EGFR mRNA as erlotinib-resistant. Therefore, the ratio of Mig6 to miR200 was a reliable predictive biomarker of the primary tumors response to EGFR TKIs regardless of their EGFR status.

[4] = system: miR200 family members (200a, 200b, 200c and 205); assay: Real-time PCR of miR200 family after exposure to TGFβ; type: cell-based, human; details: SCC-S, H358 and H292 cells, exposure for 21 days
Experimental: RNA was extracted and expression levels of miR200a, miR200b, miR200c and miR205 were quantified by real-time PCR. B. RNA was extracted from four sensitive/resistant cancer cell lines pairs. Levels of miR200a, miR200b, miR200c and miR205 were measured and relative expression is presented as average fold change of each miRNA in erlotinib-sensitive cell lines relatively to that in resistant cells, which was given a value 1. […] Relative quantification of miRNA expression was performed by using RNU6b as an internal control. The results are presented as expression average of each miRNA in erlotinib-sensitive cell lines relatively to that in erlotinib-resistant cells.
as §3
We next examined changes in miR200 levels in erlotinib-sensitive (SCC-S) and erlotinib-resistant (SCC-R) isogenic H&N cell lines.

[5] = system: SCC-S, H358 and H292 erlotinib-sensitive epithelial cell lines; assay: TGFβ-induced EMT, immunoblot of EMT markers and kinases; type: cell-based, human
Experimental: FIGS. 2A-2F depict that increased production of TGFβ induces an EMT-associated kinase switch which promotes erlotinib-resistance of tumor cells. A. Protein lysates were extracted from indicated cell lines Immunoblot analysis was performed with antibodies against E-cadherin, vimentin and β-actin. B. Tumor cell supernatants of 25 cancer cell lines shown in A were collected and differential levels of TGFβ production were analyzed by ELISA. C. […] Cells were collected at different time points and Immunoblot analysis was performed with indicated antibodies. […] Values were set at 100% for untreated controls. […]
Antibodies and immunoblot analysis. […] Protein concentrations were determined by the BCA method and lysates diluted in SDS sample buffer (Bio-Rad, Hercules, Calif.) prior to SDS-PAGE. […] ImageJ (ver 1.46) software was used to quantify immunoblot signals on exposed films.
Increased production of TGFβ induces an EMT-associated kinase switch that promotes erlotinib-resistance of tumor cells. […] To test whether TGFβ can promote this kinase switch, levels of phospho IGFR, PDGFR, FGFR and FAK kinases were assessed in response to treatment of erlotinib-sensitive cells (H358, H292 and SCC-S) with TGFβ1 for 21 days.

## NC(=O)c1ccc(-c2nc(-c3ccc4c(c3)OCO4)c(-c3ccccn3)[nH]2)cc1 [SB-431542]
[1]
  AKT phosphorylation: downregulation
  Mig6 expression: downregulation
miR200c and miR205
  miR200c levels: significant increase
  miR205 levels: significant increase
[2]
  sensitivity of tumor cells to erlotinib: increased the sensitivity of tumor cells to erlotinib

## N#CC(=C(/N)Sc1ccccc1N)/C(C#N)=C(\N)Sc1ccccc1N [U0126]
Mig6
  basal expression of Mig6: reduced basal expression of Mig6

## C#Cc1cccc(Nc2ncnc3cc(OCCOC)c(OCCOC)cc23)c1 [erlotinib]
Mig6
  basal expression of Mig6: reduced basal expression of Mig6
[3]
  erlotinib response of lung tumor xenografts: erlotinib-resistant

## TGFβ
[4]
  expression of the miR200 family members (200a, 200b, 200c and 205): significantly reduced
[5]; time course 1-21 days, TGF-β1 or TGF-β3, SCC-S, H358 and H292 cells
  EMT markers (loss of E-cadherin and upregulation of vimentin): complete EMT by day 14

## TGFβ1: TGFβ isoform used to treat erlotinib-sensitive cells for 21 days
[5]; H358, H292 and SCC-S cells, TGFβ1 for 21 days, compared to untreated counterparts
  levels of phospho IGFR, PDGFR, FGFR and FAK kinases: significantly greater activity
